According to patent US20120315342A1, “EPITHELIAL CELL-CELL ADHESION ENHANCER, AND AMELIORATING, THERAPEUTIC OR PROPHYLACTIC AGENT FOR ALLERGIC DISEASES USING SAME” (Tokai Medical Test Laboratory Co., priority 2010, published 2012):

Experiments:
Assay type in all cases: cell-based
Caco-2 cells [1] = assay: Recovery of TEER after decreased epithelial cell-cell adhesion caused by extracellular calcium deficiency (Examples 1-3); conditions: for recovery of TEER in comparison with the negative control group / recovery-promoting effect on TEER in comparison with the positive control group: Example 1, FIG. 1, 1 wt. % in calcium-containing DMEM after 2 h calcium-free DMEM, n=3
Excerpt: (§1) The oligosaccharide containing 1-kestose used in the present Example 1 is composed of 98 wt. % 1-kestose, 1 wt. % nystose, and 1 wt. % sucrose. Namely, it is an oligosaccharide containing 1-kestose at a purity of 98 wt. %. Also, as the index for the cell-cell adhesion strength in cultured cells, transepithelial electrical resistance (TEER) was used. This measurement method utilizes a property that the stronger the epithelial cell-cell adhesion, the bigger the electrical resistance value between the upper layer and the lower layer of the cell culture medium, and this technique is also employed for a model experiment using epithelial cells and the like.
(§2) Caco-2 cells, which are the epithelial colorectal carcinoma cells, were subcultured in a 10% FES-containing DMEM medium (GIBCO), and the 48th generation of cultured cells were cryopreserved and used for the following experiments. The Caco-2 cells were seeded in the upper layer of a Transwell (Corning Life Sciences) and cultured in an incubator in 5% CO2 at 37° C. in the presence of a 10% FBS-containing DMEM medium. Cell culture was performed until the electrical resistance between the upper layer and the lower layer of the Transwell (TEER) reached 400 to 500 Ω·cm^2.
The Caco-2 cells that were cultured until TEER of the Transwell reached 400 to 500 Ω·cm^2 were cultured for two hours after exchanging the 10% FES-containing DMEM medium for a calcium-free DMEM medium. Subsequently, a calcium-containing DMEM medium to which an oligosaccharide containing 1-kestose, or nystose, was added at a concentration of 1 wt. % was added to the upper layer. Then, TEER was chronologically measured every half hour, and the cells were cultured up to 22 hours and then TEER was measured (1% kestose group, 1% nystose group, n=3). As the control group, a group of cells that were cultured only in a calcium-free DMEM medium (negative control group, n=3) and a group in which culture was performed for two hours in a calcium-free DMEM medium, and then the medium was only exchanged for a calcium-containing DMEM medium (positive control group, n=3) were prepared, and chronological changes in TEER were compared.
The Caco-2 cells that were cultured until TEER of the Transwell reached 400 to 500 Ω·cm^2 were cultured for two hours after exchanging the 10% FBS-containing DMEM medium for a calcium-free DMEM medium. Subsequently, a calcium-containing DMEM medium to which an oligosaccharide containing 1-kestose was added at a concentration of 1 wt. % was added to the upper layer. Then, TEER was chronologically measured every half hour, and the cells were cultured up to three hours and then TEER was measured (calcium (+) 1% kestose group, n=3). Also, a group in which an oligosaccharide containing 1-kestose was added at a concentration of 1 wt. % to the calcium-free DMEM medium, while the medium was not exchanged for a calcium-containing DMEM medium, and cell culture was performed up to three hours and then TEER was measured was prepared (calcium (−) 1% kestose group, n=3). As the control group, a group of cells that were cultured only in a calcium-free DMEM medium (negative control group, n=3) and a group in which culture was performed for two hours in a calcium-free DMEM medium, and then the medium was only exchanged for a calcium-containing DMEM medium (positive control group, n=3) were prepared, and chronological changes in TEER were compared.
The Caco-2 cells that were cultured until TEER of the Transwell reached 400 to 500 Ω·cm^2 were cultured for two hours after exchanging the 10% FBS-containing DMEM medium for a calcium-free DMEM medium. Subsequently, a calcium-containing DMEM medium to which an oligosaccharide containing 1-kestose was added at a concentration of 1 wt. % or 0.1 wt. % was added to the upper layer. Then, TEER was chronologically measured every half hour, and the cells were cultured up to 3.5 hours and then TEER was measured (1% kestose group, 0.1% kestose group, n=3). […]

Caco-2 cells [2] = assay: Prior administration of 1-kestose, inhibition of TEER decrease caused by extracellular calcium deficiency (Example 4); conditions: for TEER right before exchanging the medium for calcium-free DMEM, versus negative and positive control groups: 1 wt. %; for decrease in TEER after exchange for calcium-free DMEM and elimination of 1-kestose, versus negative control group: 1 wt. % prior administration
Excerpt: as §1, §2
The Caco-2 cells were cultured until TEER of the Transwell reached 400 to 500 Ω·cm^2. The 10% FES-containing DMEM medium was exchanged for a […] DMEM medium, and an oligosaccharide containing 1-kestose was added at a concentration of 1 wt. % to the upper layer. The medium was exchanged for a calcium-free medium one hour or six hours later, and TEER was chronologically measured three times, every half hour (1-hour calcium (+) 1% kestose group, 6-hour calcium (+) 1% kestose group, n=3). As the control group, a group in which culture was performed for one hour or six hours in a calcium- containing DMEM medium, and then in a calcium-free DMEM medium (1-hour calcium (+) negative control group, 6-hour calcium (+) negative control group, n=3) and a group of cells that were cultured only in a calcium-containing DMEM medium (positive control group, n=3) were prepared, and chronological changes in TEER were compared.

Caco-2 cells [3] = assay: Lucifer Yellow permeation from upper to lower layer after extracellular calcium deficiency (Example 5); conditions: Example 5, FIG. 6, 3 h; for residual concentration of Lucifer Yellow in the lower layer compared to the negative control group: 1 wt. % in calcium-containing medium, Lucifer Yellow in upper layer
Procedure: as §2
The Caco-2 cells that were cultured until TEER of the Transwell reached 400 to 500 Ω·cm^2 were cultured for two hours after exchanging the 10% FBS-containing DMEM medium for a calcium-free colorless HESS medium (GIBCO). Subsequently, a calcium-containing colorless HESS medium (GIBCO) to which an oligosaccharide containing 1-kestose, sucrose, or nystose was added at a concentration of 1 wt. % was added to the upper layer. At the same time, Lucifer Yellow (MP Biomedical LLC.) was added to the upper layer at a concentration of […] as a substance passing between the cells. After culturing for three hours, the HBSS medium in the lower layer was collected, and the residual concentration of Lucifer Yellow that had permeated from the upper layer to the lower layer was measured (1% kestose group, 1% sucrose group, and 1% nystose group, n=3). As the control group, a group of cells cultured only in a calcium-free HBSS medium (negative control group, n=3) and a group in which culture was performed for two hours in a calcium-free HBSS medium, and then the medium was only exchanged for a calcium-containing HBSS medium (positive control group, n=3) were prepared, and the amounts of substances that passed between the cells were compared.

Caco-2 cells [4] = assay: Inhibition of TEER decrease caused by inflammatory cytokine IL-1β (Example 6)
Excerpt: as §1
Caco-2 cells, which are the epithelial colorectal carcinoma cells, were subcultured in a 10% FES-containing DMEM medium (GIBCO), and the 48th generation of cultured cells were cryopreserved and used for the following experiments. […]
To the upper layer of a DMEM medium in which the Caco-2 cells were cultured until TEER of the Transwell reached 400 to 500 Ω·cm^2, an oligosaccharide containing 1-kestose was added at a concentration of 1 wt. %. […] TEER was measured 48 hours later and a ratio of the value thus measured to the initial measured value of TEER was calculated (1% kestose (+), IL-1β(+) group, n=3). […]

[5] = Example 4, FIG. 4, 1-hour calcium (+)
[6] = Example 4, FIG. 5, 6-hour calcium (+)

Row | Compound | recovery of TEER in comparison with the negative control group (Caco-2 cells [1]) | recovery-promoting effect on TEER in comparison with the positive control group (Caco-2 cells [1]) | promotion of TEER recovery compared to the 1% nystose group (Caco-2 cells [1]; Example 1, 1 wt. %) | recovery-promoting effect relative to the positive control group, on average (Caco-2 cells [1]; Example 1, 1 wt. %, 30 minutes after exchanging calcium-free for calcium-containing DMEM) [times] | effect of promoting recovery of TEER in comparison with the positive control group (Caco-2 cells [1]; Example 2, FIG. 2, calcium (+), 1 wt. %) | recovery of TEER (Caco-2 cells [1]; Example 2, FIG. 2, calcium (+), 1 wt. % in calcium-containing DMEM, up to 3 h) | recovery of TEER (Caco-2 cells [1]; Example 2, FIG. 2, calcium (−), 1 wt. % in calcium-free DMEM, up to 3 h) | recovery of TEER (Caco-2 cells [1]; Example 3, FIG. 3, 0.1 wt. % in calcium-containing DMEM, up to 3.5 h) | promotion of recovery of TEER, 1% group versus 0.1% group (Caco-2 cells [1]; Example 3, FIG. 3, 1 wt. % compared with 0.1 wt. %) | recovery of TEER (Caco-2 cells [1]; Example 3, FIG. 3, 1 wt. % in calcium-containing DMEM, up to 3.5 h) | TEER right before exchanging the medium for calcium-free DMEM, versus negative and positive control groups (Caco-2 cells [2]; [5]) | decrease in TEER after exchange for calcium-free DMEM and elimination of 1-kestose, versus negative control group (Caco-2 cells [2]; [5]) | TEER right before exchanging the medium for calcium-free DMEM, versus negative and positive control groups (Caco-2 cells [2]; [6]) | decrease in TEER after exchange for calcium-free DMEM and elimination of 1-kestose, versus negative control group (Caco-2 cells [2]; [6]) | residual concentration of Lucifer Yellow in the lower layer compared to the negative control group (Caco-2 cells [3]) | residual concentration of Lucifer Yellow in the lower layer compared to the positive control group (Caco-2 cells [3]; 1 wt. %) | residual concentration of Lucifer Yellow in the lower layer, rank among all groups (Caco-2 cells [3]; 1 wt. %) | average TEER ratio (to the initial measured value of TEER) (Caco-2 cells [4]; Example 6, FIG. 7, 1 wt. % for 24 h, then IL-1β 10 ng/mL in lower layer, measured 48 h later, n=3) | inhibition of the decrease of TEER (Caco-2 cells [4]; Example 6, 1 wt. %, IL-1β 10 ng/mL, 48 h)
1 | OC[C@H]1O[C@@](CO)(OC[C@@]2(O[C@H]3O[C@H](CO)[C@@H](O)[C@H](O)[C@H]3O)O[C@H](CO)[C@@H](O)[C@@H]2O)[C@@H](O)[C@@H]1O [1-kestose] | significant recovery of TEER | significant recovery-promoting effect | tendency of stronger promotion of recovery | 2.4 | significant effect of promoting recovery of TEER | significant recovery of TEER | Recovery of TEER was hardly observed | significant recovery of TEER | tendency of stronger promotion of recovery of TEER | significant recovery of TEER | significant increase in TEER | tendency that a decrease in TEER in the 1-hour calcium (+) 1% kestose group was inhibited | significant increase in TEER | tendency that a decrease in TEER in the 6-hour calcium (+) 1% kestose group was inhibited | significant reduction in the residual concentration | further reduced residual concentrations | lowest residual concentration | 0.849 | approximately 26%
2 | OC[C@H]1O[C@@](CO)(OC[C@@]2(OC[C@@]3(O[C@H]4O[C@H](CO)[C@@H](O)[C@H](O)[C@H]4O)O[C@H](CO)[C@@H](O)[C@@H]3O)O[C@H](CO)[C@@H](O)[C@@H]2O)[C@@H](O)[C@@H]1O [nystose] | significant recovery of TEER | significant recovery-promoting effect | – | – | – | – | – | – | – | – | – | – | – | – | significant reduction in the residual concentration | further reduced residual concentrations | – | – | –
